Values quoted from earlier work as cited in patent publication US20070191228A1, “Natural herbicide” (priority 2005, published 2007).

Columns and labels:
[1] = system: sorghum (Sorghhum bicolor (L.)); settings: Owens 1973
[2] = system: large crabgrass (Digitaria sanguimalis); settings: Owens 1973

N[C@H](CO)CO/C=C/[C@H](N)C(=O)O [Rhizobitoxine, rhizobitoxine]
herbicidal activity [1]: herbicidal
herbicidal activity [2]: herbicidal
